From patent US12662479B2 (Foghorn Therapeutics Inc., priority 2020, dated 2026) come the findings set out here.

Experiment [1] deals with T1, HiBit-BRG1 fusion protein (Homo sapiens, UniProt P51532).
T1 construct: expressed in transfected cells
Briefly: HiBiT-BRG1 cell-based degradation assay (Nano-Glo HiBiT Lytic Detection, 24 h). Conditions: HeLa cells expressing HiBit-BRG1 and LgBit; for DC50: read-out: BRG1 HiBit Degradation IC50; for Dmax: HeLa, top dose 30 μM, read-out: BRG1 HiBit Degradation Maximum measured. The gist of the method: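 Stable HeLa line expressing HiBiT-BRG1 and LgBiT, seeded at 5000 cells/well; luminescence read after lytic Nano-Glo HiBiT reagent and 10 min shaking at RT. % degradation normalised between DMSO (high control) and 2 μM reference BRM/BRG1 degrader (low control).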
Background: HiBiT is a short tag that completes a luciferase, so light tracks the accessible tagged protein.

The target in another experiment is T2, HiBit-BRM fusion protein (Homo sapiens, UniProt P51531).
T2 construct: expressed in transfected cells
T2 sequence (P51531 whole entry, the tested form may be a part): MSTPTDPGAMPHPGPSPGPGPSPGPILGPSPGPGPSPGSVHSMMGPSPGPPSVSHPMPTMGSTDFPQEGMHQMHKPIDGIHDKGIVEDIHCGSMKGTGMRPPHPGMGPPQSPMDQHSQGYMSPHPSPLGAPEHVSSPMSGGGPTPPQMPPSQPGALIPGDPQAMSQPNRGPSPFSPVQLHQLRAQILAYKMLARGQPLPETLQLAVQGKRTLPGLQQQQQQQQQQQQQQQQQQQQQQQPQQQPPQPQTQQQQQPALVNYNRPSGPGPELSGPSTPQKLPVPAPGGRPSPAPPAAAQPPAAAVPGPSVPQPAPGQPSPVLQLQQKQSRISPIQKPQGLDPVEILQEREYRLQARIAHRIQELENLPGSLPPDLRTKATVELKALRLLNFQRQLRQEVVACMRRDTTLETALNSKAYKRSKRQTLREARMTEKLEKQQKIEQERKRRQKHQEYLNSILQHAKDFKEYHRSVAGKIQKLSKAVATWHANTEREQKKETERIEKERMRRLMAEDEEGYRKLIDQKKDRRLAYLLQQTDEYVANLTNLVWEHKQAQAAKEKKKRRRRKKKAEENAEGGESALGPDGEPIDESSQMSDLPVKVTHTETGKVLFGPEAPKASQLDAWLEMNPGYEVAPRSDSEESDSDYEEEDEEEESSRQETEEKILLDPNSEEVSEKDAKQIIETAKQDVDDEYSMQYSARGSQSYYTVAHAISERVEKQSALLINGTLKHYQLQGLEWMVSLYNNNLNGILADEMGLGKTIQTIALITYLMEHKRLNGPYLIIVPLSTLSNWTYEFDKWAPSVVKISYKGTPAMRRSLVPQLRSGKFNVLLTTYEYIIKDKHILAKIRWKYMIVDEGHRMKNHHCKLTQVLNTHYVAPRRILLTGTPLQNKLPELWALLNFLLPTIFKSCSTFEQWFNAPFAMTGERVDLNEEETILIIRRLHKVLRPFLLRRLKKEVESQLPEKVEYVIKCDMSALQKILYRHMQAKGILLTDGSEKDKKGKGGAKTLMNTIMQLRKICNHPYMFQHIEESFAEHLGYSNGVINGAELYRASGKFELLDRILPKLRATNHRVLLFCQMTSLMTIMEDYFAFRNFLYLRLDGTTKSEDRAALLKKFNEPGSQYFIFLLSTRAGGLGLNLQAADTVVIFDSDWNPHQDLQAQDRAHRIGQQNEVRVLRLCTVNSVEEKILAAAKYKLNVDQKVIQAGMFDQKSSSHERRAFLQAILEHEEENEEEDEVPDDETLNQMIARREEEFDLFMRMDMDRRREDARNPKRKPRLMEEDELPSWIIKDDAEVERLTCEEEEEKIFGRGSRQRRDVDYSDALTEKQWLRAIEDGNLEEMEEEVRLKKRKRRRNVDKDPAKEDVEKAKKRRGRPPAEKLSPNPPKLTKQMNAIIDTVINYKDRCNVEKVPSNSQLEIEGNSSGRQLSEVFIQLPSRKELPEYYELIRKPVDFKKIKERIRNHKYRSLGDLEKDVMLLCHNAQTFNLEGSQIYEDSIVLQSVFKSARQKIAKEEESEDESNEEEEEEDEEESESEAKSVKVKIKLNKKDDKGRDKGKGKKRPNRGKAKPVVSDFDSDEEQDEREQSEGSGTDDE
Briefly: HiBiT-BRM cell-based degradation assay (Nano-Glo HiBiT Lytic Detection, 24 h). The conditions noted are these: HeLa cells expressing HiBiT-BRM; for DC50: read-out: BRM HiBit Degradation IC50; for BRM HiBit Degradation Maximum measured: top dose 30 μM. The gist of the method: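 Luminescence from reconstituted NanoBiT luciferase in lysed HeLa HiBiT-BRM cells served as the measure of remaining BRM after 24 h treatment. Compounds were tested from 30 μM final downward in 3-fold steps. DMSO and 2 μM of a standard BRM/BRG1 degrader defined the scale limits.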

T1 sequence (P51532 whole entry, the tested form may be a part): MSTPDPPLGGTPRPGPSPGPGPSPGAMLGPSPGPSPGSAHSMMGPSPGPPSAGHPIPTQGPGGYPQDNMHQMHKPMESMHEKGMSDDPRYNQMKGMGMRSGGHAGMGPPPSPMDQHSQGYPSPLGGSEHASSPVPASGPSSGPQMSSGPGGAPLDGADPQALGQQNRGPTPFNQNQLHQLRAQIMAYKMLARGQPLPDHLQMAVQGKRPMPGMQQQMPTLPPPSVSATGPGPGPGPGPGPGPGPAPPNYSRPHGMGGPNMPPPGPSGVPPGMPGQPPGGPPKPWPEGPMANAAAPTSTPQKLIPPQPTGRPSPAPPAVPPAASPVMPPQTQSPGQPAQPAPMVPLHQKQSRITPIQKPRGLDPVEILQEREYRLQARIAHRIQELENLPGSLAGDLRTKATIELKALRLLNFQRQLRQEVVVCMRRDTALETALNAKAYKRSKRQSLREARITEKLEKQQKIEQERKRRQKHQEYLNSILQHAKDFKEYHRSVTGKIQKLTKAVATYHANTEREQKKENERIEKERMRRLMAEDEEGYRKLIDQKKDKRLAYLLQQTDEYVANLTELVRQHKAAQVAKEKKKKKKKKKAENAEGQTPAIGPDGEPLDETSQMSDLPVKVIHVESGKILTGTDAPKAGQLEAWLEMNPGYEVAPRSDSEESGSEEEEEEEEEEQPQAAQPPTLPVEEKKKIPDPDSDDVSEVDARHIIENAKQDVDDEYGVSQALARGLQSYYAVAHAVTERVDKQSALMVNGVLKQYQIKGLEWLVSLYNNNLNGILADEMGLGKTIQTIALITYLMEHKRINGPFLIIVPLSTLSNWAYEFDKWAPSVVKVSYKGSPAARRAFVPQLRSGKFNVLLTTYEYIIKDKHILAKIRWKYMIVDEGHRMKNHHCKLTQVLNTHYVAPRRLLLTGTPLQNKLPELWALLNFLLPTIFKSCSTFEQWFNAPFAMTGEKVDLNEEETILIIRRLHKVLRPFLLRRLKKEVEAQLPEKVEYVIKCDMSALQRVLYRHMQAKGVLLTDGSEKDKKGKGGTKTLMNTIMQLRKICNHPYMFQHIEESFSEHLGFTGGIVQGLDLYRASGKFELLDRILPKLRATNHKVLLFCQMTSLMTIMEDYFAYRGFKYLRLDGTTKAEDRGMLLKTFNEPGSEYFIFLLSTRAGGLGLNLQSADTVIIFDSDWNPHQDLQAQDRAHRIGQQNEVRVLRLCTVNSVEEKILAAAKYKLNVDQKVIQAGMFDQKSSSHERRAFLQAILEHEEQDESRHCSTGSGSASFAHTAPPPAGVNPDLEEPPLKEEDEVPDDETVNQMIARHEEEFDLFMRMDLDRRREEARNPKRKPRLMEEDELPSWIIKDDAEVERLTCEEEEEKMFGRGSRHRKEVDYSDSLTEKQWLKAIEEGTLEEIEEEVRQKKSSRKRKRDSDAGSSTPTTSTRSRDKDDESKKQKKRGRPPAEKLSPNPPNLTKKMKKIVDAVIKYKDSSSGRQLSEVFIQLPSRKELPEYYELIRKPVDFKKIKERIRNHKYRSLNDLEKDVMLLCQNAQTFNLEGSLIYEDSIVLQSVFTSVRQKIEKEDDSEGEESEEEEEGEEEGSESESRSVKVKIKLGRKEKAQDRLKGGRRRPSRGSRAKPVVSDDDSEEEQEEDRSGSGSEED

For the compound `Cc1ncsc1-c1ccc(CNC(=O)[C@@H]2C[C@@H](O)CN2C(=O)[C@@H](NC(=O)COCCOCCNC(=O)c2ccc(COC[C@H](NC(=O)c3ccn(S(C)(=O)=O)c3)C(=O)Nc3nc(-c4ccccc4)cs3)cc2)C(C)(C)C)cc1` [Compound 188, (2S,4R)-4-hydroxy-1-[(2S)-2-[2-(2-[2-[(4-[[(2S)-2-[(1-methanesulfonylpyrrol-3-yl)formamido]-2-[(4-phenyl-1,3-thiazol-2-yl)carbamoyl]ethoxy]methyl]phenyl)formamido]ethoxy]ethoxy)acetamido]-3,3-dimethylbutanoyl]-N-[[4-(4-methyl-1,3-thiazol-5-yl)phenyl]methyl]pyrrolidine-2-carboxamide], in experiment [1], the DC50 fell in the range of 1000 to 10000 nM and the Dmax was 50 to 75%. At HiBit-BRM fusion protein, the DC50 was over 10000 nM and the “BRM HiBit Degradation Maximum measured” value is on record as “C (‘C’ = Maximum degradation <50%)”.

Turning to `CS(=O)(=O)n1ccc(C(=O)NCC(=O)Nc2nc(-c3cccc(-c4ccnc(N5CCN(C(=O)C6CC6CNC(=O)COc6cccc7c6C(=O)N(C6CCC(=O)NC6=O)C7=O)CC5)c4)c3)cs2)c1` (centres unmarked) [Compound 32, N-[2-[[4-[3-[2-[4-[2-[[[2-[2-(2,6-dioxo-3-piperidyl)-1,3-dioxo-isoindolin-4-yl]oxyacetyl]amino]methyl]cyclopropanecarbonyl]piperazin-1-yl]-4-pyridyl]phenyl]thiazol-2-yl]amino]-2-oxo-ethyl]-1-methylsulfonyl-pyrrole-3-carboxamide], in experiment [1], the DC50 was over 10000 nM and the Dmax is under 50%. In addition, at HiBit-BRM fusion protein, the DC50 is over 10000 nM and the “BRM HiBit Degradation Maximum measured” value was “C (‘C’ = Maximum degradation <50%)”.

Regarding `CS(=O)(=O)n1ccc(C(=O)NCC(=O)Nc2nc(-c3cccc(-c4ccnc(C5(C(=O)N6CC(Oc7ccc8c(c7)C(=O)N(C7CCC(=O)NC7=O)C8=O)C6)CC5)c4)c3)cs2)c1` (centres unmarked) [Compound 141, N-[4-(3-[2-[1-(3-[[2-(2,6-dioxopiperidin-3-yl)-1,3-dioxoisoindol-5-yl]oxy]azetidine-1-carbonyl)cyclopropyl]pyridin-4-yl]phenyl)-1,3-thiazol-2-yl]-2-[(1-methanesulfonylpyrrol-3-yl)formamido]acetamide], in experiment [1], the DC50 was over 10000 nM and the Dmax is under 50%. On HiBit-BRM fusion protein, the DC50 was in the range of 100 to 1000 nM; the “BRM HiBit Degradation Maximum measured” value is “B (‘B’ = Maximum degradation ≥50% and ≤75%)”.

As for `Cc1ncsc1-c1ccc(CNC(=O)[C@@H]2C[C@@H](O)CN2C(=O)[C@@H](NC(=O)CCCCCCCNC(=O)C2(c3cc(-c4cccc(-c5csc(NC(=O)CNC(=O)c6ccn(S(C)(=O)=O)c6)n5)c4)ccn3)CC2)C(C)(C)C)cc1` [Compound 99, N-(2-((4-(3-(2-(1-((8-(((S)-1-((2S,4R)-4-hydroxy-2-((4-(4-methylthiazol-5-yl)benzyl)carbamoyl)pyrrolidin-1-yl)-3,3-dimethyl-1-oxobutan-2-yl)amino)-8-oxooctyl)carbamoyl)cyclopropyl)-pyridin-4-yl)phenyl)thiazol-2-yl)amino)-2-oxoethyl)-1-(methylsulfonyl)-1H-pyrrole-3-carboxamide], in experiment [1], the DC50 was under 100 nM and the Dmax was over 75%. At HiBit-BRM fusion protein, the DC50 was under 100 nM and the “BRM HiBit Degradation Maximum measured” value is reported as “A (‘A’ = Maximum degradation >75%)”.

In the case of `CC(C)(C)n1ccc(C(=O)N[C@@H](COCc2ccc(C(=O)NCCOC3CN(c4ccc5c(c4)C(=O)N(C4CCC(=O)NC4=O)C5=O)C3)cc2)C(=O)Nc2nc(-c3ccccc3)cs2)c1` (some centres unmarked) [Compound 171], the DC50 (in experiment [1]; on HiBit-BRM fusion protein) was under 100 nM each time.

Consider `CN(CCNC(=O)CN(C)c1cc(-c2cccc(-c3csc(NC(=O)CNC(=O)c4ccn(S(C)(=O)=O)c4)n3)c2)ccn1)CCNc1cccc2c1C(=O)N(C1CCC(=O)NC1=O)C2=O` (centres unmarked) [Compound 21, N-(2-((4-(3-(2-((2-((2-((2-((2-(2,6-dioxopiperidin-3-yl)-1,3-dioxoisoindolin-4-yl)amino)ethyl)(methyl)amino)ethyl)amino)-2-oxoethyl)(methyl)amino)pyridin-4-yl)phenyl)thiazol-2-yl)amino)-2-oxoethyl)-1-(methylsulfonyl)-1H-pyrrole-3-carboxamide], for which, in experiment [1], the DC50 was over 10000 nM and the Dmax was under 50%. In addition, at HiBit-BRM fusion protein, the DC50 is over 10000 nM and the “BRM HiBit Degradation Maximum measured” value is on record as “C (‘C’ = Maximum degradation <50%)”.

In the case of `Cc1ncsc1-c1ccc(CNC(=O)[C@@H]2C[C@@H](O)CN2C(=O)[C@@H](NC(=O)CCCCCCCCC(=O)NCCCC[C@H](NC(=O)c2ccn(S(C)(=O)=O)c2)C(=O)Nc2nc(-c3ccccc3)cs2)C(C)(C)C)cc1` [Compound 268], in experiment [1], the DC50 is over 10000 nM and the Dmax is under 50%. Further, at HiBit-BRM fusion protein, the DC50 was over 10000 nM and the “BRM HiBit Degradation Maximum measured” value was “C (‘C’ = Maximum degradation <50%)”.

On to `Cc1ncsc1-c1ccc(CNC(=O)[C@@H]2C[C@@H](O)CN2C(=O)[C@@H](NC(=O)CCCCCCCCC(=O)NCc2ccc(COC[C@H](NC(=O)c3ccn(S(C)(=O)=O)c3)C(=O)Nc3nc(-c4ccccc4)cs3)cc2)C(C)(C)C)cc1` [Compound 177, N-[(2S)-1-[(2S,4R)-4-hydroxy-2-([[4-(4-methyl-1,3-thiazol-5-yl)phenyl]methyl]carbamoyl)pyrrolidin-1-yl]-3,3-dimethyl-1-oxobutan-2-yl]-N′-[(4-[[(2S)-2-[(1-methanesulfonylpyrrol-3-yl)formamido]-2-[(4-phenyl-1,3-thiazol-2-yl)carbamoyl]ethoxy]methyl]phenyl)methyl]decanediamide], for which, in experiment [1], the DC50 lay in the range of 100 to 1000 nM and the Dmax is 50 to 75%. In addition, on HiBit-BRM fusion protein, the DC50 was over 10000 nM and the “BRM HiBit Degradation Maximum measured” value is recorded as “C (‘C’ = Maximum degradation <50%)”.

As to `Cc1ncsc1-c1ccc(CNC(=O)[C@@H]2C[C@@H](O)CN2C(=O)[C@@H](NC(=O)CCCCCNC(=O)C2(c3cc(-c4cccc(-c5csc(NC(=O)CNC(=O)c6ccn(S(C)(=O)=O)c6)n5)c4)ccn3)CC2)C(C)(C)C)cc1` [Compound 100, N-(2-((4-(3-(2-(1-((6-(((S)-1-((2S,4R)-4-hydroxy-2-((4-(4-methylthiazol-5-yl)benzyl)carbamoyl)pyrrolidin-1-yl)-3,3-dimethyl-1-oxobutan-2-yl)amino)-6-oxohexyl)carbamoyl)cyclopropyl)-pyridin-4-yl)phenyl)thiazol-2-yl)amino)-2-oxoethyl)-1-(methylsulfonyl)-1H-pyrrole-3-carboxamide], in experiment [1], the DC50 is under 100 nM and the Dmax is over 75%. Moreover, at HiBit-BRM fusion protein, the DC50 lay within 100 to 1000 nM and the “BRM HiBit Degradation Maximum measured” value was “A (‘A’ = Maximum degradation >75%)”.

With `Cc1ncsc1-c1ccc(CNC(=O)[C@@H]2C[C@@H](O)CN2C(=O)[C@@H](NC(=O)CCCCCCCCCCC(=O)NCCCC[C@H](NC(=O)c2ccn(S(C)(=O)=O)c2)C(=O)Nc2nc(-c3ccccc3)cs2)C(C)(C)C)cc1` [Compound 265], in experiment [1], the DC50 is over 10000 nM and the Dmax was under 50%. For the same compound, at HiBit-BRM fusion protein, the DC50 was over 10000 nM and the “BRM HiBit Degradation Maximum measured” value is on record as “C (‘C’ = Maximum degradation <50%)”.

Take `CN(CCNC(=O)COc1ccc2c(c1)C(=O)N(C1CCC(=O)NC1=O)C2=O)CCNC(=O)C1(c2cc(-c3cccc(-c4csc(NC(=O)CNC(=O)c5ccn(S(C)(=O)=O)c5)n4)c3)ccn2)CC1` (centres unmarked) [Compound 111, N-[2-[[4-[3-[2-[1-[2-[2-[[2-[2-(2,6-dioxo-3-piperidyl)-1,3-dioxo-isoindolin-5-yl]oxyacetyl]amino]ethyl-methylamino]ethylcarbamoyl]cyclopropyl]-4-pyridyl]phenyl]thiazol-2-yl]amino]-2-oxo-ethyl]-1-methylsulfonyl-pyrrole-3-carboxamide]: in experiment [1], the DC50 was over 10000 nM and the Dmax is under 50%. Moreover, on HiBit-BRM fusion protein, the DC50 was over 10000 nM and the “BRM HiBit Degradation Maximum measured” value is reported as “C (‘C’ = Maximum degradation <50%)”.

Take `CS(=O)(=O)n1ccc(C(=O)N[C@@H](COCc2ccc(C(=O)NCCCCCCNc3ccc4c(c3)C(=O)N(C3CCC(=O)NC3=O)C4=O)cc2)C(=O)Nc2nc(-c3ccccc3)cs2)c1` (stereo partly drawn) [Compound 201, N-(6-[[2-(2,6-dioxopiperidin-3-yl)-1,3-dioxoisoindol-5-yl]amino]hexyl)-4-[[(2S)-2-[(1-methanesulfonylpyrrol-3-yl)formamido]-2-[(4-phenyl-1,3-thiazol-2-yl)carbamoyl]ethoxy]methyl]benzamide]: in experiment [1], the DC50 was under 100 nM and the Dmax is over 75%. Besides, at HiBit-BRM fusion protein, the DC50 lay within 100 to 1000 nM and the “BRM HiBit Degradation Maximum measured” value was “A (‘A’ = Maximum degradation >75%)”.

In the case of `Cc1ncsc1-c1ccc(CNC(=O)[C@@H]2C[C@@H](O)CN2C(=O)[C@@H](NC(=O)COCCOCCOCCNC(=O)C2(c3cc(-c4cccc(-c5csc(NC(=O)CNC(=O)c6ccn(S(C)(=O)=O)c6)n5)c4)ccn3)CC2)C(C)(C)C)cc1` [Compound 110, N-[2-[[4-[3-[2-[1-[2-[2-[2-[2-[[(1S)-1-[(2S,4R)-4-hydroxy-2-[[4-(4-methylthiazol-5-yl)phenyl]methylcarbamoyl]pyrrolidine-1-carbonyl]-2,2-dimethyl-propyl]amino]-2-oxo-ethoxy]ethoxy]ethoxy]ethylcarbamoyl]-cyclopropyl]-4-pyridyl]phenyl]thiazol-2-yl]amino]-2-oxo-ethyl]-1-methylsulfonyl-pyrrole-3-carboxamide], in experiment [1], the DC50 is 100 to 1000 nM and the Dmax is over 75%. In addition, at HiBit-BRM fusion protein, the DC50 lay in the range of 100 to 1000 nM; the “BRM HiBit Degradation Maximum measured” value is “B (‘B’ = Maximum degradation ≥50% and ≤75%)”.
